From PMC3340011 (Biophysical Chemistry, 2011)
“Also recorded” adds a separate entry of the source.

How the values were obtained:
[1] = test system: CaM76–148, sites III and IV; assay type: binding, rat
[2] = test system: CaM1–148, sites III and IV (C-domain); test: Fluorescence-monitored equilibrium Ca^2+ titration, sites III and IV of CaM1–148; assay type: binding, rat; details: for ΔΔG2 = ΔG2^app(CaM+CaV1.2p) − ΔG2^app(CaM): CaM1–148, sites III and IV
[3] = test system: CaM1–148, sites I and II (N-domain); test: Fluorescence-monitored equilibrium Ca^2+ titration, sites I and II of CaM1–148; assay type: binding, rat; details: for ΔΔG2 = ΔG2^app(CaM+CaV1.2p) − ΔG2^app(CaM): CaM1–148, sites I and II; for effect on Ca^2+-binding affinity of N-domain (in words): compared with IQ1644
[4] = target: CaM1–80 (N-domain of calmodulin) (Rattus norvegicus, UniProt P0DP29); test: Fluorescence anisotropy titration of Fl-Cav1.2p with CaM N-domain; assay type: binding; details: pre-IQ region, calcium-saturated
[5] = test system: CaM1–80, sites I and II; test: Fluorescence-monitored equilibrium Ca^2+ titration, sites I and II of CaM1–80; assay type: binding, rat
[6] = target: CaM76–148 (C-domain of calmodulin) (Rattus norvegicus, UniProt P0DP29); test: Fluorescence anisotropy titration of Fl-Cav1.2p with CaM C-domain; assay type: binding
[7] = test system: CaM1–148, sites I and II (N-domain); details: previous study; cited from earlier work
[8] = test system: CaM1–148, sites III and IV (C-domain); details: previous study; cited from earlier work
[9] = Calcium dissociation from fluorescent indicator dye; assay type: binding
[10] = no peptide, 2 μM CaM, pH 7.4, 22 °C, average ± SD
[11] = no peptide, pH 7.4, 22 °C, average ± SD

Row | Molecule | ΔΔG2 = ΔG2^app(CaM+CaV1.2p) − ΔG2^app(CaM) [1] | ΔΔG2 = ΔG2^app(CaM+CaV1.2p) − ΔG2^app(CaM) [2] | ΔΔG2 = ΔG2^app(CaM+CaV1.2p) − ΔG2^app(CaM) [3] | ΔΔG2 = ΔG2^app(CaM+CaV1.2p) − ΔG2^app(CaM) [5] | effect on Ca^2+-binding affinity of N-domain (in words) [3] | also measured
1 | H-FNATLFALVRTALRIKTEGNLE-OH [A1588] | -0.72 kcal/mol | -1.05 kcal/mol | -2.99 kcal/mol | -1.55 kcal/mol | – | effect on Ca^2+-binding affinity of C-domain (in words) [2]: weak effect; domain preference, (Ca^2+)2-N-domain [4]: bound preferentially to A1588; also recorded: higher affinity for CaM1–80 than for CaM76–148; also recorded: binding the N-domain of CaM more favorably than the C-domain
2 | CaM1–80: N-domain fragment of calmodulin, residues 1–80 | – | – | – | – | – | ΔG1^app (calcium binding) [5, 10]: -5.92 ± 0.38 kcal/mol; ΔG2^app (calcium binding) [5, 10]: -12.76 ± 0.09 kcal/mol
3 | H-ELRAIIKKIWKRTSMKLLDQVV-OH [C1614] | -2.95 kcal/mol | -2.94 kcal/mol | -1.10 kcal/mol | -1.15 kcal/mol | much weaker effect | domain preference, (Ca^2+)2-C-domain ([6]; pre-IQ region, calcium-saturated): preferred C1614; effect on Ca^2+-binding affinity of N-domain of CaM1–148 [7]: there was not an effect on the N-domain; effect on Ca^2+-binding affinity of C-domain of CaM1–148 [8]: increased the Ca^2+-binding affinity of the C-domain of CaM1–148
4 | XRhod5F | – | – | – | – | – | fold lower Kd for calcium (vs Oregon Green) [9]: ~ 20 fold
5 | CC[C@H](C)[C@H](NC(=O)[C@H](CC(C)C)NC(=O)[C@H](Cc1ccccc1)NC(=O)[C@@H](NC(=O)[C@H](C)N)[C@@H](C)O)C(=O)N[C@@H](CCC(N)=O)C(=O)N[C@@H](CCC(=O)O)C(=O)N[C@@H](Cc1ccc(O)cc1)C(=O)N[C@@H](Cc1ccccc1)C(=O)N[C@@H](CCCNC(=N)N)C(=O)N[C@@H](CCCCN)C(=O)N[C@@H](Cc1ccccc1)C(=O)N[C@@H](CCCCN)C(=O)N[C@@H](CCCCN)C(=O)N[C@@H](CCCNC(=N)N)C(=O)N[C@@H](CCCCN)C(=O)N[C@@H](CCC(=O)O)C(=O)N[C@@H](CCC(N)=O)C(=O)NCC(=O)N[C@@H](CC(C)C)C(=O)N[C@H](C(=O)NCC(=O)N[C@@H](CCCCN)C(=O)N1CCC[C@H]1C(=O)N[C@@H](CO)C(=O)N[C@@H](CCC(N)=O)C(=O)O)C(C)C [IQ′1650] | -3.35 kcal/mol | -3.63 kcal/mol | -1.24 kcal/mol | -0.82 kcal/mol | much weaker effect | fold more favorable affinity for CaM76–148 than CaM1–80 ([6]; Ca^2+-saturated): about 100 fold; Kd ([6]; Kd (CaM dissociation from Fl-Cav1.2p), calcium-saturated, CaM76–148, 10 mM CaCl2, pH 7.4, 22 °C, limit): ≤ 10 nM
6 | CaM76–148: C-domain fragment of calmodulin, residues 76–148 | – | – | – | – | – | ΔG1^app (calcium binding) [1, 11]: -5.45 ± 0.51 kcal/mol; ΔG2^app (calcium binding) [1, 11]: -14.66 ± 0.13 kcal/mol
